Results: ChEMBL document CHEMBL1139709, “6-Hydroxy- and 6-methoxy-beta-carbolines as acetyl- and butyrylcholinesterase inhibitors” (Bioorg Med Chem Lett, 2006)

Assays:
Cholinesterase = Cholinesterase (Homo sapiens, UniProt P06276); assay: Inhibition of BChE
Acetylcholinesterase = Acetylcholinesterase (Homo sapiens, UniProt P22303); assay: Inhibition of AChE
Chain of Acetylcholinesterase (P22303 whole entry): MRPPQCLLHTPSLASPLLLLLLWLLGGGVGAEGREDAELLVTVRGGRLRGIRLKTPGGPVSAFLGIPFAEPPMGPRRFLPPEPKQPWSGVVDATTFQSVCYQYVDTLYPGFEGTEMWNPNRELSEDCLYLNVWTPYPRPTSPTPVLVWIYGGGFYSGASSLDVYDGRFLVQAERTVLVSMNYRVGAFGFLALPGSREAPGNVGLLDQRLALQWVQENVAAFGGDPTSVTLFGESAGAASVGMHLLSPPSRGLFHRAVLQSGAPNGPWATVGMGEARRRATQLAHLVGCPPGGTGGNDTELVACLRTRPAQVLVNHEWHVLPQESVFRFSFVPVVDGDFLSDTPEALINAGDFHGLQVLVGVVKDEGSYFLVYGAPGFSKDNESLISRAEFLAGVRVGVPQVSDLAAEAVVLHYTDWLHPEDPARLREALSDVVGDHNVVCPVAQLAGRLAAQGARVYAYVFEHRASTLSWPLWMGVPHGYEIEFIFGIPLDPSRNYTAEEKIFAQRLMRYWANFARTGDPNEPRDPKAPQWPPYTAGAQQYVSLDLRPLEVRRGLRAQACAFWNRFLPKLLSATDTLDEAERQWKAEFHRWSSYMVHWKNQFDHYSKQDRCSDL

Chain of Cholinesterase (P06276 whole entry): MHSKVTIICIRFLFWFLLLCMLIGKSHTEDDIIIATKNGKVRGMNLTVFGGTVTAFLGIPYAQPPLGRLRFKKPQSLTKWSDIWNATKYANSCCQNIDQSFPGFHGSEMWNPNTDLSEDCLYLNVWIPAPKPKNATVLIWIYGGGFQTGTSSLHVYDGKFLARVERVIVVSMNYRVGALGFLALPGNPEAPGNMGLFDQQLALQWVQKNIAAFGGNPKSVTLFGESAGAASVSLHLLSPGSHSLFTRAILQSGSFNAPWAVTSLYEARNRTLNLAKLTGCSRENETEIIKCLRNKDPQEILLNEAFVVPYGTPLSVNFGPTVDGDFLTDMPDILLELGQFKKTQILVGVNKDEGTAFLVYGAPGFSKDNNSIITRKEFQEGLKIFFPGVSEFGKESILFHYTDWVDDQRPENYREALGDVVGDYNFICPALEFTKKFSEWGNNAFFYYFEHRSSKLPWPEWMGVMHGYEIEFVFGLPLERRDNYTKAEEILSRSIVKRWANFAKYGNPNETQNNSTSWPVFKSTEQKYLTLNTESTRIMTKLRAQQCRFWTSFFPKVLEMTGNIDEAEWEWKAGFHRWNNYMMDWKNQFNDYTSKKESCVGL

SMILES | IC50 (Cholinesterase; read-out: IC50) [µM] | IC50 (Acetylcholinesterase; read-out: IC50) [µM] | IC50 (Cholinesterase; read-out: Log IC50 (converted)) [µM] | IC50 (Acetylcholinesterase; read-out: Log IC50 (converted)) [µM]
Cc1nccc2c3cc(O)ccc3n(C)c12 | > 10 | > 10 |  | 
C[n+]1ccc2c(c1)[nH]c1ccc(O)cc12 | 8.7 | 4.2 |  | 
COc1ccc2c(c1)c1cc[n+](C)c(C)c1n2C | > 10 | > 10 |  | 
COc1ccc2c(c1)c1ccncc1n2C | > 10 | > 10 |  | 
COc1ccc2[nH]c3c(c2c1)CCNC3 | > 10 | > 10 |  | 
COc1ccc2[nH]c3c(C)nccc3c2c1 | > 10 | > 10 |  | 
Cn1c2ccc(O)cc2c2cc[n+](C)cc21 | 32.2 | 1.8 |  | 
Cn1c2ccc(O)cc2c2ccncc21 | > 10 | > 10 |  | 
COc1ccc2[nH]c3c(C)[n+](C)ccc3c2c1 | 1.2 | 0.8 | 1.1 | 
COc1ccc2c(c1)c1ccnc(C)c1n2C | 17.4 | 11.8 |  | 
Cc1c2[nH]c3ccc(O)cc3c2cc[n+]1C | 1.6 | 1 |  | 
Oc1ccc2[nH]c3cnccc3c2c1 | > 10 | > 10 |  | 
Cc1nccc2c1[nH]c1ccc(O)cc12 | > 10 | > 10 |  | 
COc1ccc2[nH]c3c[n+](C)ccc3c2c1 | 17.5 | 2.2 |  | 
COc1ccc2c(c1)c1cc[n+](C)cc1n2C | 20.9 | 1.3 |  | 1.4
Cc1c2c(cc[n+]1C)c1cc(O)ccc1n2C | 2.7 | 1.9 |  | 
COc1ccc2[nH]c3cnccc3c2c1 | > 10 | > 10 |  | 
COc1ccc2[nH]c3c(c2c1)CCNC3C (stereo not drawn) [ADRENOGLOMERULOTROPIN] | > 10 | > 10 |  | 
